These results are taken from publication PMC7724566, “Prospects for Clinical Development of Stat5 Inhibitor IST5-002: High Transcriptomic Specificity in Prostate Cancer and Low Toxicity In Vivo” (Cancers, 2020).

The subject of one series is C57BL/6j mice. The experiment in a line: Sub-chronic toxicity study (10 days), hematology. Format: in vivo. To be noted: daily i.p. 10 days, blood. How it is done:
The sub-chronic toxicity study (10 days) was carried out in C57BL/6J mice (8 weeks) (stock 000664) (n = 10/dose group 5 of each sex). IST5 was administered daily (0, 10, 30 and 100 mg/kg) via i.p. injection. Vehicle (0 mg/kg) group mice received a single i.p. injection of 0.3% hydroxypropyl cellulose. Plasma samples were analyzed for aspartate aminotransferase (AST), alanine aminotransferase (ALT), sorbitol dehydrogenase (SDH), alkaline phosphatase (ALP), γ-lutamyltransferase (GGT), lactate dehydrogenase (LDH), bilirubin (TBIL), protein (TP), glucose (GLU), blood urea nitrogen (BUN), creatinine (CREAT), and electrolytes (Na, K, Cl, Ca, CO2) (Marshfield Labs, WI, USA). A detailed hematological analysis was carried out on the sub-mandibular blood samples of mice collected at the end of the protocol and analyzed for white blood cells, red blood cells, hemoglobin, lymphocyte counts, monocytes, eosinophils and granulocytes. Brain, liver, heart, kidney and spleen were harvested, weighed and fixed in 10% buffered formalin and processed for histopathological analysis. In histopathological analysis, gross morphology and ultra-structural change were assessed. The clinical chemistry parameters measured were the same as those used for the acute toxicity study.

The next series deals with JAK2 (Homo sapiens, UniProt O60674). The experiment in a line: Cell-based tyrosine phosphorylation of Jak kinases (IP/immunoblot). To be noted: 6 µM, 6 h. Details: endogenous in cells; host or cells: DU145 and CWR22Pc. From the text: Figure 5 Both IST5 and IST5-M suppress dimerization of Stat5 with similar efficacies in prostate cancer cells. (A), IST5 and IST5-M inhibit equally potently dimerization of Stat5 in native-gel-based Stat5 dimerization assay. CWR22Rv1 cells were transfected with STAT5A-eYFP (Stat5 wild type), STAT5A-N642H-eYFP (constitutive activated Stat5 by N642H mutation, as a positive control) or STAT3-eYFP (Stat3 wild type, as a negative control) constructs for 3 days. CWR22Rv1 cells were serum-starved for 16 h, pretreated with vanadate (1 mM) for 2 h, followed by treatment with vehicle, IST5 and IST5-M (1 µM) for 6 h and stimulation with Prl (10 nM) for 1 h. Dimerization of Stat5 was analyzed by detection of the eYFP fluorescence of the native Coomassie gel. (B), IST5 and IST5-M inhibited cytokine-induced dimerization of Stat5 with high efficacy in PC cells. PC-3 cells were co-transfected with pCMV-3Flag-Stat5a, pCMV-3Myc-Stat5a, and pPrlR plasmids. Cells were serum-starved for 16 h, pretreated with IST5, IST5-M or vehicle at indicated concentrations for 2 h, followed by stimulation with Prl (10 nM) for 30 min. Anti-MYC mAb was utilized to immunoprecipitate the MYC-tagged Stat5a and blotted with anti-FLAG mAb or anti-MYC mAb, as indicated. […] (C), densitometric analyses of the Stat5 dimerization data based on co-immunoprecipitations and immunoblotting in (B). […] Prostate cancer cells were treated with IST5 (6 µM) or vehicle for 6 h. Jak1, Jak2, Jak3 and Tyk2 were immunoprecipitated and blotted with anti-phospho-tyrosine, Jak1, Jak2, Jak3 and Tyk2 antibodies. Whole cell lysates (WCL) were immunoblotted for actin. (E), differences in posttranslational modifications were detected between native and recombinant STAT5a using mass spectrometry. Native STAT5a from CWR22Rv1 cells and recombinant STAT5a from E. coli were gel-purified, digested using trypsin, and analyzed by bottom-up mass spectrometry. Native full-length STAT5a (blue) is show with recombinant STAT5A highlighted (red). Sites of acetylation and phosphorylation from the respective sources are noted including two previously published sites of phosphorylation (asterisk).
JAK2, sequence (O60674 whole entry): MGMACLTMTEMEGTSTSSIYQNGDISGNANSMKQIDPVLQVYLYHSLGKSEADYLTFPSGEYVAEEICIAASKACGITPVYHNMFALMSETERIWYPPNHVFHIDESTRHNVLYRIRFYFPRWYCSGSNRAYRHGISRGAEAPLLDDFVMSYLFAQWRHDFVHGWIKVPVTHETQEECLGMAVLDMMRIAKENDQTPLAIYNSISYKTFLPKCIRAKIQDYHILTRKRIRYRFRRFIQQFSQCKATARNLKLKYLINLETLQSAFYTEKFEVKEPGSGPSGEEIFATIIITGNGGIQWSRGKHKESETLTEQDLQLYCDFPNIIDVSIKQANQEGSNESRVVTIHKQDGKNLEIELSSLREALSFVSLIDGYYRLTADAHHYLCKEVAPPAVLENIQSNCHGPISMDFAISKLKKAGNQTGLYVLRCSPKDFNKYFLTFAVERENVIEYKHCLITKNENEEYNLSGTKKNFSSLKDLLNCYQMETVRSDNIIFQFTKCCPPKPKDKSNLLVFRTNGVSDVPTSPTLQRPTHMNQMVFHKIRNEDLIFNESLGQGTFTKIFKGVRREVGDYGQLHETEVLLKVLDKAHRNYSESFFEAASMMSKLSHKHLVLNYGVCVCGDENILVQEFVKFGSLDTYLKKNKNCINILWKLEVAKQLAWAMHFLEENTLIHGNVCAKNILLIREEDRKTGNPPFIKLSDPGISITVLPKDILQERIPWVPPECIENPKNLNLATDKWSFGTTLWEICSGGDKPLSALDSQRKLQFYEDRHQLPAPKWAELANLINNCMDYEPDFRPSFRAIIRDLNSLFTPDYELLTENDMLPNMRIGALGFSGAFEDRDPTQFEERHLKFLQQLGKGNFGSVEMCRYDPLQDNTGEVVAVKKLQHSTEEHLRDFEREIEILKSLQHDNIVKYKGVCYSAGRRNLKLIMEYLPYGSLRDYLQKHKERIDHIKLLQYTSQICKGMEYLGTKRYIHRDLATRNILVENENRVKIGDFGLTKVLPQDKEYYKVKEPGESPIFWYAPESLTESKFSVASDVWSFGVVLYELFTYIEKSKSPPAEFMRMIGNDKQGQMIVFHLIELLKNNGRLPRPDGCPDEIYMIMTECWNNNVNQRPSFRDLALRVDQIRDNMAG
Given that IST5 suppresses phosphorylation of Stat5 in PC cells, it is possible that IST5 inhibits the kinase(s) responsible for Stat5 phosphorylation and activation in PC cells. To evaluate if IST5 affects kinase activity in cancer cells, we tested kinase inhibitory activity of IST5 in two custom-tailored panels including 54 relevant kinases (Table 1), including Jak1, Jak2, Jak3, Tyk2, Abl1, Abl2, Lck, Fyn, Src and TrkB/C. In addition, we further tested if IST5 inhibits tyrosine phosphorylation of Jak1, Jak2, Jak3 or Tyk2 using a cell-based assay (Figure 5D), where phosphorylation of the kinase is indicative of enzymatic kinase activity. DU145 and CWR22Rv1 cells were treated with IST5 (6 µM) for 6 h followed by immunoprecipitation of Jak1, Jak2, Jak3 and Tyk2 and immunoblotting with anti-phospho-tyrosine antibody. […] Collectively, these findings indicate that the inhibitory effect of IST5 on Stat5 phosphorylation in cancer cells is not due to inhibition of Jak2 or other key kinases including Jak1, Jak3, Tyk2, Src, Lck, Fyn, TrkB/C, Abl1 or Abl2 (Table 1, Figure 5D).
Cell pellets were solubilized in the lysis buffer (10 mM Tris-HCl (pH 7.6), 5 mM EDTA, 50 mM sodium chloride, 30 mM sodium pyrophosphate, 50 mM sodium fluoride, 1 mM sodium orthovanadate, 1% Triton X-100, 1 mM phenylmethylsulfonyl fluoride, 5 µg/mL aprotinin, 1 µg/mL pepstatin A and 2 µg/mL leupeptin), and protein concentrations of clarified cell lysates were determined by a simplified Bradford method (Bio-Rad, Hercules, CA, USA). The whole cell lysates were immunoprecipitated with polyclonal antibodies (Table S1) followed by incubation with protein A-Sepharose beads (GE Healthcare, Chicago, IL, USA). […]

In the series with C57BL/6j mice (10 mg/kg), `O=P(O)(O)OCC1OC(n2cnc3c(NCc4ccccc4)ncnc32)C(O)C1O` (stereo not drawn) [IST5] returned an EOS of 3.88 ± 1.0%, a GRA of 25.9 ± 2.3%, an HGB of 19.8 ± 1.4 g/dL and an LYM of 67.8 ± 2.0%. Further, in the series on C57BL/6j mice (10 mg/kg), the MON is 6.29 ± 0.75%, the PLT was 614 ± 119 10^3/µL, the RBC stood at 10.59 ± 0.2 M/uL and the WBC was determined as 4.18 ± 0.65 K/uL. In addition, in the series on C57BL/6j mice (30 mg/kg), the EOS was found to be 5.29 ± 1.35%, the GRA came out at 29.7 ± 6.7%, the HGB is given as 18.2 ± 2.5 g/dL and the LYM is 63.23 ± 6.7%. For the same compound, in the series on C57BL/6j mice (30 mg/kg), the MON is 7.06 ± 0.5%, the PLT is 553 ± 154 10^3/µL, the RBC was found to be 9.61 ± 0.31 M/uL and the WBC amounted to 3.76 ± 0.55 K/uL. In addition, the “phosphorylation of Jak2” value on JAK2 (CWR22Pc cells) is “did not alter”. The “phosphorylation of Jak2” value at JAK2 (DU145 cells) is given as “did not alter”.
